Data on four molecules can be found in publication PMC12925725, “A potent nonapeptide inhibitor for the CXCL12/HMGB1 heterocomplex: A computational and experimental approach” (Computational and Structural Biotechnology Journal, 2025).

Usually Kd stands for a measure of binding affinity in units of concentration. Lower therefore signals higher affinity.

Data set [1] concerns the target T1, HMGB1-BoxA (Homo sapiens, UniProt P09429).
T1 construct: His-tagged HMGB1-BoxB, HMGB1-BoxA, and full length HMGB1 proteins were produced at the Protein Facility; made in house
T1 sequence (P09429 9-79 limits assumed): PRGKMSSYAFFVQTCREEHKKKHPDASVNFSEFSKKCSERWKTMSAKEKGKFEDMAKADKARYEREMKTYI
The experiment in a line: Microscale thermophoresis (MST) binding to HMGB1-BoxA. To be noted: 10 nM labelled protein, PBS-T 0.05 % Tween 20, at least 40 min room temperature, 25 °C. The protocol: (§1) His-tagged HMGB1-BoxB, HMGB1-BoxA, and full length HMGB1 proteins were produced at the Protein Facility of the Institute for Research in Biomedicine as previously described, [17], and stored in phosphate-buffered saline (PBS; product No. D8537, Sigma Aldrich, Saint Louis, USA).
(§2) Target proteins were fluorescently-labeled using the specific His-Tag Labeling Kit RED-tris-NTA 2nd Generation of NanoTemper Technologies (Product No. MO-L018), according to manufacturer instructions. A fixed 10 nM concentration of labeled target protein was mixed with sixteen 1:1 serial dilutions of the ligand peptide (see Supplementary Materials, Table S4 for the details about the concentration ranges used for the peptides). Both protein and peptide were dissolved in PBS-T buffer (0.05 % Tween™ 20, NanoTemper Technologies), and incubated for at least 40 min at room temperature. […] Finally, the data were processed by employing the dedicated MO.Affinity Analysis software v2.3 (NanoTemper Technologies GmbH, München, Germany) and the Kd values were determined based on concentration-dependent changes in normalized fluorescence (Fnorm), while the figures were generated using GraphPad Prism software v8.0.2 (GraphPad, Boston, USA). […]
For orientation: Microscale thermophoresis detects binding through changes in fluorescence in a small temperature gradient.

Data set [2] deals with T2, HMGB1-BoxB (Homo sapiens, UniProt P09429).
T2 construct: His-tagged HMGB1-BoxB, HMGB1-BoxA, and full length HMGB1 proteins were produced at the Protein Facility; made in house
T2 sequence (P09429 95-163 limits assumed): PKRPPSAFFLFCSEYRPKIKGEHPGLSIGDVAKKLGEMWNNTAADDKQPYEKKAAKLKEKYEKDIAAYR
The experiment in a line: Microscale thermophoresis (MST) binding to HMGB1-BoxB. Particulars: 10 nM His-tag RED-tris-NTA labelled protein, PBS-T 0.05 % Tween 20, at least 40 min room temperature, 25 °C. The protocol: as §1, §2

For data set [3], the target named is T3, CXCL12/HMGB1 heterocomplex (Homo sapiens, UniProt P09429).
T3 construct: His-tagged HMGB1-BoxB, HMGB1-BoxA, and full length HMGB1 proteins were produced; His-tag; made in house
T3 sequence (P09429 1-215): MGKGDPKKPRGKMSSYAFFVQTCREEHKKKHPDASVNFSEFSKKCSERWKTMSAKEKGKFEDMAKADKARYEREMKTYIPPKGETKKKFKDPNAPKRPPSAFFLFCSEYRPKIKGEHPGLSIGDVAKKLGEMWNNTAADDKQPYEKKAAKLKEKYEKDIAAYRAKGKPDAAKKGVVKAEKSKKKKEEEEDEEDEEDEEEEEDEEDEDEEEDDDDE
The experiment in a line: In vitro chemotaxis of human monocytes in response to the CXCL12/HMGB1 heterocomplex (Boyden chamber). It is filed as cell-based. To be noted: 1 nM CXCL12 + 300 nM HMGB1, peptide 0.1-10 μM, 90 min, four independent experiments, read-out: IC50, inhibition of monocyte migration in response to the CXCL12/HMGB1 heterocomplex. The protocol: The murine 300.19 PreB cell line, stably transfected with the human CXCR4 [47], was cultured under standard culture conditions (5 % CO2, […], 37 °C) in RPMI-1640, supplemented with 10 % Fetal Bovine Serum, 1x non-essential amino acids, 1 mM Sodium pyruvate, 20 mM GlutaMAX, 50 μM β-Mercaptoethanol, 50 U/mL Penicillin and 50 μg/mL Streptomycin (GIBCO). Human monocytes were freshly isolated from buffy-coats obtained by spontaneous donation from healthy individuals (Central Laboratory of Swiss Red Cross, Basel, Switzerland, and Centro Trasfusionale Lugano, Switzerland, Canton Ticino Ethical Committee approval CE3428), and isolated by positive selection using CD14 microbeads (Miltenyi Biotec), as previously described.
In vitro cell migration of CXCR4 + murine 300.19 PreB cells and of freshly isolated human monocytes was performed using Boyden chambers equipped with 5 μm pore membranes, as previously described. Briefly, cells were diluted at 10^6 cell/mL in RPMI 1640, supplemented with 20 mM Hepes, pH 7.4, and 1 % pasteurized plasma protein solution, and allowed to migrate for 90 min in response to different stimuli under standard conditions (5 % CO2, […], 37 °C). CXCL12 was used at 1 nM, 10 nM or 100 nM. The CXCL12/HMGB1 heterocomplex was formed by combining 1 nM CXCL12 with 300 nM HMGB1.

A further data set relates to human monocytes. The data set can be described thus: Peptide toxicity on human monocytes (AnnexinV-FITC / propidium iodide, flow cytometry). The class given is cell-based. Particulars: 1 μM or 10 μM, 2 or 4 hours. The method, then:
(§3) After incubation, cells were stained using AnnexinV-FITC and propidium iodide following the manufacturer’s instructions, and cell viability was analyzed by ﬂow cytometry in comparison to the untreated control.

The subject of data set [4] is murine CXCR4 + 300.19 PreB cell line. The experiment in a line: Peptide toxicity on murine CXCR4+ 300.19 PreB cells (AnnexinV-FITC / propidium iodide, flow cytometry). The class given is cell-based. Particulars: 1 μM or 10 μM, 2 or 4 hours. The method, then: as §3
(A flow cytometer gives signals particle by particle.)

Another data set in a line: Solubility in PBS buffer. It is filed as physicochemical. Particulars: compared with HBP08–2.
Data set [5] concerns the target T4, High Mobility Group Box 1 (HMGB1), full length (UniProt P09429 1-215, RED-tris-NTA dye on the His tag (His-Tag Labeling Kit RED-tris-NTA 2nd Generation) in the MST).
T4 construct: HMGB1, full length; also called recombinant HMGB1; source: produced at the Protein Facility of the Institute for Research in Biomedicine as previously described
T4 sequence (looked up): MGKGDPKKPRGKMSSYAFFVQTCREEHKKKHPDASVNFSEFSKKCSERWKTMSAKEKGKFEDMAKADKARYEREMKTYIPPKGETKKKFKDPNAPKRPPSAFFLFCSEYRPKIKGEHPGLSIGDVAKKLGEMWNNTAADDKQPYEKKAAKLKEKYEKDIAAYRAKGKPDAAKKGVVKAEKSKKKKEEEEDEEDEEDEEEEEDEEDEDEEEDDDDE
The data set can be described thus: MST; 10 nM target protein labelled on its His tag (RED-tris-NTA) mixed with sixteen 1:1 serial dilutions of the peptide; PBS-T (0.05 % Tween 20); incubated at least 40 min at room temperature; 25 °C; Monolith NT.115 Pico, excitation 20 %, MST power 40 %. Particulars: both partners purified.

Data set [6] deals with T5, HMGB1-BoxA (RED-tris-NTA dye on the His tag (His-Tag Labeling Kit RED-tris-NTA 2nd Generation) in the MST).
T5 chain: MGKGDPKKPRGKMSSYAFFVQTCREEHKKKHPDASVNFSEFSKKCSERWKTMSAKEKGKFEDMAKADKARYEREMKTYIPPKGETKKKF
The data set is described as above. Particulars: both partners purified.

The target in data set [7] is HMGB1-BoxB. The data set is described as above.

As to `CC[C@H](C)[C@H](NC(=O)[C@H](Cc1c[nH]c2ccccc12)NC(=O)[C@H](CCSC)NC(=O)[C@H](CCC(N)=O)NC(=O)[C@H](Cc1ccc(O)cc1)NC(=O)[C@H](Cc1c[nH]cn1)NC(=O)[C@H](CCCNC(=N)N)NC(=O)[C@@H]1CCCN1)C(=O)N[C@@H](Cc1c[nH]cn1)C(=O)O` [HBP08–2], the Kd at HMGB1-BoxA [1] is 4200 ± 400 nM; at HMGB1-BoxB [2], 11.3 ± 2.3 nM. The IC50 in [3] was 3310 nM. Also, in the data set with human monocytes, the “toxicity on human monocytes” value is recorded as “did not exhibit toxicity”. In addition, the “toxicity on murine CXCR4+ 300.19 PreB cells” value in data set [4] is on record as “did not exhibit toxicity”.
As for `CC[C@H](C)[C@H](NC(=O)[C@H](Cc1c[nH]c2ccccc12)NC(=O)[C@H](CCSC)NC(=O)[C@H](CCSC)NC(=O)[C@H](Cc1ccc(O)cc1)NC(=O)[C@H](Cc1c[nH]cn1)NC(=O)[C@H](CCCNC(=N)N)NC(=O)[C@@H]1CCCN1)C(=O)N[C@@H](Cc1c[nH]cn1)C(=O)O` [HBP08–3], the affinity at HMGB1-BoxB [2], expressed as Kd, was 15.3 ± 1.9 nM. In “Solubility in PBS buffer”, the “solubility in PBS buffer” value is “lower solubility”.

B1: HBP08–2 (peptide)
peptide: PRHYQMWIH
notes: Reconstituted in DMSO; also called G1P + E5Q; source: synthetic peptide, synthetized by Proteogenix (without TFA), purity about 99 %
With B1, the Kd stood at 28.1 ± 7 nM in data set [5], 4200 ± 400 nM with HMGB1-BoxA [6] and 11.3 nM with HMGB1-BoxB [7].
Molecule PRHYMMWIH [HBP08–3] had a Kd in the data set with HMGB1-BoxB [7] of 15.3 nM.
